# “Also recorded” adds a separate entry of the source.
# Tests used:
# Assay type in all cases: cell-based, human
# [1] = system: normal whole blood; assay: Clot elastic modulus (CEM) in batroxobin/calcium-clotted whole blood (Hemodyne); details: 1200 seconds
# Description: (§1) The patients and normal controls in this study were enrolled under a series of protocols approved by the Institutional Review Board for Human Studies of Virginia Commonwealth University. Written consent was obtained from each volunteer. Blood was obtained via aseptic venipuncture into evacuated tubes containing 3.2% sodium citrate.
# (§2) Whole blood clot formation was induced by the addition of CaCl2 or a combination of CaCl2 and batroxobin (0.21 μg/ml). Platelet contractile force development and clot elastic modulus were measured for 1200 seconds.
# Clot elastic modulus was measured by applying a downward force of known magnitude to the upper plate of the Hemodyne apparatus (9). The amount of downward displacement caused by the force was measured. The ratio of downward force (stress) to downward displacement (strain) was used to calculate the elastic modulus. Stress equals the force applied divided by the area of application and strain is the degree of shape change induced by the applied force.
# [2] = system: normal whole blood; assay: Platelet contractile force (PCF) in batroxobin/calcium-clotted whole blood (Hemodyne); details: for PCF: 1200 seconds
# Description: as §1, §2
# The Hemodyne® hemostasis analyzer (Hemodyne, Inc., Richmond, Va., USA) measures forces generated by platelets within a clot formed between a thermostated cup and parallel upper plate (7,8). Before clotting, the upper plate is centered above the cup and lowered into the sample. As the clot forms, it attaches to the inner walls of the cup and the bottom of the upper plate. The entire sample volume is contained between the upper and lower surfaces. Once fibrin is formed, platelets within the network pull fibrin strands inward transmitting force through the network to the surfaces to which the clot is adherent. Force measurement is accomplished utilizing a transducer coupled to the upper plate. As platelets contract, the transducer produces an electrical output proportional to the amount of force generated. The transducer output is continuously recorded.
# [3] = system: normal whole blood; assay: Thrombin generation time (TGT), onset of PCF after calcium and batroxobin
# Description: FIG. 1. Determination of the thrombin generation time (TGT) from the kinetics of platelet contractile force (PCF) development after addition of calcium (10 mM final) and batroxobin (0.21 μg/ml final) to 700 μl of citrated (3.2%) whole blood at time zero. The TGT is taken to be the initial inflection point of the PCF curve, ie. the moment the PCF first begins to increase.
# as §1, §2
# Citrated blood clotted with batroxobin, or other similar enzymes (e.g., reptilase), and calcium develops PCF. […] During this time period, thrombin is generated by re-calcification. Since the fibrin network is in place prior to the generation of thrombin, PCF becomes apparent as soon as a small amount of thrombin is generated (FIG. 1). Thus, the inflection or take off point in the PCF curve serves as a marker of thrombin generation in the batroxobin mediated assay. For ease in identification, the first derivative of the curve in FIG. 1 will provide a sharp break where the curve increases (TGT being at the spike). The instrumentation used for the analysis, such as that shown in FIG. 9, can provide the output of FIG. 1 or the first derivative for identification of TGT, or, alternatively, the output could simply be an indicator light array indicating when the TGT is in the normal range or outside of the normal range.
# We designate the time between calcium addition and initial PCF development the Thrombin Generation Time (TGT). Similar results can be obtained without using a snake venom enzyme if one simply recalcifies the plasma sample. Since thrombin generation must be followed by fibrin clot formation before PCF can begin to occur in the recalcification assay, the lag phase tends to be longer and more variable. Similar assays termed reptilase clot retractions were shown in the early seventies to be sensitive to a variety of antiplatelet and anticoagulant agents (10).
# [4] = 0.165 U/ml added to normal whole blood
# [5] = 0.330 U/ml added to normal whole blood
# [6] = 0.660 U/ml added to normal whole blood
# [7] = 1.320 U/ml added to normal whole blood
# [8] = increasing concentrations in normal whole blood
# [9] = bivalirudin 3.5 μg/ml in normal whole blood
substance,measurement,setting,value
Hirudin,CEM,[1]; [4],12.34 Kdynes/cm^2
same,CEM,[1]; [5],11.21 Kdynes/cm^2
same,CEM,[1]; [6],6.50 Kdynes/cm^2
same,CEM,[1]; [7],0.73 Kdynes/cm^2
same,PCF,[2]; [4],4.01 Kdynes
same,PCF,[2]; [5],3.57 Kdynes
same,PCF,[2]; [6],1.80 Kdynes
same,PCF,[2]; [7],0.70 Kdynes
same,Effect on PCF,[2]; [8],declines; also recorded: reduction
same,TGT,[3]; [4],420 s
same,TGT,[3]; [5],480 s
same,TGT,[3]; [6],560 s
same,TGT,[3]; [7],>1200 s
same,Effect on TGT,[3]; [8],prolongs; also recorded: dose depend prolongation
bivalirudin,Effect on PCF,[2]; [9],lower; also recorded: decreases
same,Effect on TGT,[3]; [9],prolongs
